According to ChEMBL document CHEMBL4689842, “EUbOPEN Chemogenomics Library wave 1” (2021):

Experiments:
Type in all cases: toxicity, cell-based
HEK-293T = assay: Incucyte cell viability with HEK293T; settings: human, 10 µM, compound concentration 10 uM
U2OS = assay: Incucyte cell viability with U2OS; settings: human, 10 µM, compound concentration 10 uM
Fibroblast = assay: Incucyte cell viability with human fibroblast; settings: 10 µM, compound concentration 10 uM
[1] = 0 h, replicate number 1, timepoint 0 hours
[2] = 6 h, replicate number 1, timepoint 6 hours
[3] = 12 h, replicate number 1, timepoint 12 hours
[4] = 18 h, replicate number 1, timepoint 18 hours
[5] = 24 h, replicate number 1, timepoint 24 hours
[6] = 6 h, replicate number 2, timepoint 6 hours
[7] = 0 h, replicate number 2, timepoint 0 hours
[8] = 24 h, replicate number 2, timepoint 24 hours
[9] = 18 h, replicate number 2, timepoint 18 hours
[10] = 12 h, replicate number 2, timepoint 12 hours
Note: filed as whole numbers so only -1 and 0 and 1 occur.

SMILES | Growth Rate (HEK-293T; [1]) | Growth Rate (HEK-293T; [2]) | Growth Rate (HEK-293T; [3]) | Growth Rate (HEK-293T; [4]) | Growth Rate (HEK-293T; [5]) | Growth Rate (U2OS; [1]) | Growth Rate (U2OS; [2]) | Growth Rate (U2OS; [6]) | Growth Rate (U2OS; [3]) | Growth Rate (U2OS; [4]) | Growth Rate (U2OS; [5]) | Growth Rate (Fibroblast; [1]) | Growth Rate (Fibroblast; [2]) | Growth Rate (Fibroblast; [6]) | Growth Rate (Fibroblast; [3]) | Growth Rate (Fibroblast; [4]) | Growth Rate (Fibroblast; [5]) | Growth Rate (HEK-293T; [7]) | Growth Rate (U2OS; [9]) | Growth Rate (Fibroblast; [9]) | other results
O=C(Nc1nc2cccc(-c3ccc(CN4CCS(=O)(=O)CC4)cc3)n2n1)C1CC1 [FILGOTINIB] | 0 | 0 | 0 | 0 | 0 | 1 | 1 | 0 | 0 | 0 | 0 | 0 | 1 | 0 | 0 | 0 | 0 | – | – | – | –
CCCNS(=O)(=O)Nc1ncnc(OCCOc2ncc(Br)cn2)c1-c1ccc(Br)cc1 | 0 | 0 | 0 | 0 | 0 | – | 0 | – | 0 | 0 | 0 | 0 | 0 | – | 0 | 1 | 0 | – | – | – | –
C#C[C@]1(O)CC[C@H]2[C@@H]3CCc4cc(O)ccc4[C@H]3CC[C@@]21C [ETHINYL ESTRADIOL] | -1 | – | – | – | – | – | 0 | 1 | 0 | 0 | 0 | – | 0 | – | 0 | 0 | 0 | 0 | – | – | Growth Rate (HEK-293T; [8]): 1; Growth Rate (U2OS; [7]): 0
CN(C)[C@H]1CCN(c2cc(-c3ccccc3)nc3ccnn23)C1 [(S)-ZINC-3573] | 1 | 0 | 0 | 0 | 0 | – | 0 | – | 0 | 0 | 0 | 0 | 0 | – | 0 | 0 | 1 | 0 | 1 | – | Growth Rate (U2OS; [8]): 1; Growth Rate (Fibroblast; [7]): 1
CO[C@@H](C)c1c(Nc2ccc([C@@H](N(C)C(=O)C3CCS(=O)(=O)CC3)C(F)(F)F)cc2)cnc2cc(Cl)nn12 [NVS-MALT1-C] | 1 | 0 | 0 | 0 | 0 | 0 | 0 | – | 1 | 0 | 1 | 0 | 0 | – | 1 | 1 | 1 | – | – | – | Growth Rate (U2OS; [7]): 1; Growth Rate (U2OS; [8]): 0; Growth Rate (Fibroblast; [10]): 0
CC(C)NC(=O)c1ccc(C#Cc2ccncc2)cn1 | 0 | 0 | 0 | 0 | 0 | 0 | – | – | 1 | 1 | 0 | 0 | 1 | 0 | 0 | 1 | 1 | – | – | – | Growth Rate (U2OS; [8]): 1; Growth Rate (Fibroblast; [7]): 1; Growth Rate (Fibroblast; [10]): 1
O=S(=O)(NC1CCC(c2cc(F)ccc2F)(S(=O)(=O)c2ccc(Cl)cc2)CC1)C(F)(F)F (centres undefined) [MRK-560] | 0 | 1 | 0 | 0 | 0 | 1 | 1 | 0 | 1 | 0 | 1 | 0 | – | 1 | 1 | 1 | 1 | 1 | – | – | Growth Rate (U2OS; [8]): 0; Growth Rate (Fibroblast; [10]): 0; Growth Rate (Fibroblast; [8]): 0
COc1cc(OC)cc(-c2noc(N3CCN(C)C4(CCN(c5ccnc(C)c5)CC4)C3)n2)c1 | – | 0 | – | – | 1 | 0 | 0 | 1 | 0 | 0 | 0 | – | 0 | 1 | 1 | 1 | 0 | – | 1 | 0 | Growth Rate (HEK-293T; [10]): 1; Growth Rate (U2OS; [10]): 1; Growth Rate (U2OS; [8]): 1; Growth Rate (Fibroblast; [7]): 0; Growth Rate (Fibroblast; [10]): 0
OCCn1cc(-c2cnc3nnn(Cc4ccc5ncccc5c4)c3n2)cn1 [PF-04217903] | 1 | 0 | 1 | 1 | 1 | – | 1 | 0 | 1 | 1 | 1 | 0 | 1 | 0 | – | 1 | 1 | – | 0 | 0 | Growth Rate (U2OS; [7]): 0; Growth Rate (U2OS; [10]): 0; Growth Rate (U2OS; [8]): 0; Growth Rate (Fibroblast; [10]): 0
Cl.O=C([C@@H](Cc1cccc(C(F)(F)F)c1)NS(=O)(=O)c1cc(F)c2c(c1)CCNC2)N1CCCC1 | 0 | – | – | – | – | 0 | 0 | 1 | 1 | 0 | 1 | – | – | – | 1 | – | 1 | 1 | 1 | 1 | Growth Rate (HEK-293T; [6]): 1; Growth Rate (HEK-293T; [10]): 1; Growth Rate (HEK-293T; [8]): 1; Growth Rate (Fibroblast; [7]): 1
CC(=O)N1CCC(c2ccc(C(=O)NC(=N)N)cc2C(F)(F)F)CC1 [BI 9627] | 0 | – | 1 | 1 | 1 | – | 1 | – | 1 | 1 | 1 | 0 | 1 | 0 | 0 | 1 | 0 | – | – | 0 | Growth Rate (HEK-293T; [6]): 1; Growth Rate (U2OS; [7]): 0; Growth Rate (Fibroblast; [7]): 1
COc1cc2c(CCNC(C)=O)c[nH]c2cc1Cl | 0 | 1 | 1 | 1 | 1 | 0 | – | 1 | 1 | 0 | 1 | 0 | 1 | – | 1 | 1 | 1 | – | 1 | – | Growth Rate (HEK-293T; [6]): 0; Growth Rate (HEK-293T; [10]): 0
Cn1cc(CCn2cnc(-c3cnn(C)c3)c2-c2ccc(C#N)cc2)cn1 | 1 | – | – | 1 | 1 | 1 | 1 | – | 1 | 1 | 1 | – | 0 | 1 | 1 | 1 | 1 | – | 0 | 0 | Growth Rate (HEK-293T; [6]): 1; Growth Rate (HEK-293T; [10]): 1; Growth Rate (U2OS; [7]): 0; Growth Rate (Fibroblast; [7]): 0; Growth Rate (Fibroblast; [8]): 0
Cc1nnc2c3ccccc3c(N[C@@H](C)[C@H](c3ccccc3)N(C)C)nn12 | 0 | 0 | 0 | 0 | 0 | 0 | 0 | 1 | 1 | 1 | 1 | 0 | 1 | 0 | 1 | 1 | 1 | 1 | – | 0 | Growth Rate (Fibroblast; [8]): 0
CCCCCCCCCCCCCCCCOC[C@H](COP(=O)([O-])OCC[N+](C)(C)C)OC(C)=O | 1 | 1 | 1 | 1 | 1 | – | 0 | – | 1 | 0 | 1 | 0 | 1 | 0 | 1 | 1 | 1 | 0 | 1 | 0 | Growth Rate (U2OS; [10]): 0; Growth Rate (Fibroblast; [8]): 0
Cc1oncc1C(=O)Nc1ccc(C(F)(F)F)cc1 [LEFLUNOMIDE] | 1 | 0 | 1 | 1 | 0 | – | – | 1 | 1 | 1 | 1 | 0 | 1 | 0 | 1 | 1 | 1 | 0 | – | 0 | Growth Rate (HEK-293T; [6]): 1; Growth Rate (HEK-293T; [9]): 0; Growth Rate (HEK-293T; [8]): 1; Growth Rate (U2OS; [7]): 0; Growth Rate (Fibroblast; [10]): 0; Growth Rate (Fibroblast; [8]): 0
